The experiment concerns substance P receptor NK1. Put plainly: Binding (inhibition of fixation) of [125I]BH-SP to NK1 receptors in rat cortex, guinea pig ileum and human lymphoblastic cells. As to the method:
The affinity of compounds for tachykinin receptors has been evaluated in vitro by a number of biochemical tests using radioligands: 1) Bonding of [^125 I]BH-SP (substance P labelled with iodine-125 using a Bolton-Hunter reagent) to NK1 receptors in the rat cortex, the guinea pig ileum and human lymphoblastic cells. The tests were carried out as described in X. Emonds et al., (Eur. J. Pharmacol., 1993, 250, 403-413).

Consider two molecules from patent publication US5665886A, “Salts of substituted nitrogenous heteroaromatic compounds, a process for their preparation and pharmaceutical compositions containing them” (Sanofi, priority 1994, dated 1997).

`CC(C)Oc1cccc(CC(=O)N(C)CC(CC[n+]2ccc(Cc3ccccc3)cc2)c2ccc(Cl)c(Cl)c2)c1` (centres unmarked) [Example 2, 4-benzyl-1-[3-(3,4-dichlorophenyl)-4)-4-[N-methyl-(3-iso-propyloxyphenyl)acetylamino]butyl]pyridinium methanesulfonate dihydrate]: the “antagonism of substance P receptor NK1” value was “powerful antagonists”.

On to `CC(C)Oc1cccc(CC(=O)N2CCCC(CC[n+]3ccc(Cc4ccccc4)cc3)(c3ccc(Cl)c(Cl)c3)C2)c1.O.O.[Cl-]` (centres unmarked) [Example 4, 4-benzyl-1-[2-[3-(3,4-dichlorophenyl)-1-[(3-isopropoxyphenyl)-acetyl]piperidin-3-yl]ethyl]pyridinium chloride dihydrate], for which the “antagonism of substance P receptor NK1” value is reported as “powerful antagonists”.
